Laboratory results reported in article PMC6600393, “Synthesis and Cytostatic Effect of 3’-deoxy-3’-C-Sulfanylmethyl Nucleoside Derivatives with D-xylo Configuration” (Molecules, 2019).
Entries after “also recorded” stand apart in the source; their conditions may differ.

Tests used:
[1] = test system: HaCaT (human keratinocyte) cell line; test: MTT cell viability assay on HaCaT cells; type: cell-based; settings: for IC50: Homo sapiens, HaCaT, 48 h; for HaCaT IC50: MTT, 48 h incubation, 10,000 cells/well, '-' = no cytotoxicity at 20 µg/mL
Method: (§1) For the investigation of the cytotoxic effect of nucleoside analogues we used healthy human keratinocyte (HaCaT) and tumorous squamous carcinoma SCC-VII cell lines. In the experiments, a standard citotoxicity assay, the MTT assay, was used in a 96-well plate. Importantly, different cell numbers were used in the case of the two different cell lines. The HaCaT cells were seeded 10^4/well concentration while the SCC-VII cells were seeded 5000/well concentration on the plate. In both cases the cells were treated with the nucleoside analogues at ~50% confluence.
The HaCaT cell line was derived from human skin, the cells spontaneously transformed in vitro during long time incubation. Cells were cultured in DMEM medium (Biocenter, Szeged, Hungary) containing 10% fetal bovine serum (FBS, Hyclon, Logan, UT) and 1% antibiotic-antimycotic mix (Penicillin–Streptomycin–Neomycin).
(§2) Cell cultures had been kept under the same conditions during the experiments. Cells were stored at 37 °C, 95% humidity, and 5% CO2 in an incubator. During the MTT-assay, different starter cell number was used because of the cell cycle differences; HaCaT was started with 10.000/well meanwhile SCC VII with 5000/well. After passage, 24 h was assured for the cells to the adhesion. Then incubated with the compounds for 48 h. The experiments were performed in 96 well plates.
(§3) For the dilution of different concentrations of nucleoside analogues were prepared with DMSO 1% (v/v) and DMEM / DMEM-F12/Ham’s F12 cell culture medium.
(§4) After three days of incubation in the cell culture flask, cells were trypsinised into single cell suspensions. Aliquots (200 μL) of each cell suspension were placed in wells of 96-well-plates (Biocenter, Szeged, Hungary). Preliminary tests were conducted with cell numbers 5000 (SCC-VII) and 10,000 (HaCaT) per well. We have been tested five concentrations of each nucleoside analogues (20-10-5-2.5-1.25 µg/mL). The nucleoside analogues were dissolved in DMSO (1 v/v%) and DMEM/ DMEM-F12/Ham’s F12 were added to the wells to produce the required concentrations and the cells were similarly incubated for a further 48 h.
(§5) MTT (Sigma Aldrich, Budapest, Hungary) solution (0.5 mg/mL in PBS) 100 µL was added to each well. The plates were incubated for 1–2 h at 37 ^◦C, the wells aspirated, and MTT formazan extracted with 100 µL of DMSO aided by gentle agitation on a shaker. After 10 min at room temperature, the absorbances were read at 570 nm by an automatic plate reader (WALLAC Victor 2 1420 spectrophotometer), the instrument having been blanked beforehand on a row to which cells had not been added. Percentage viability (respiratory competence) of the population of cells in each well was expressed as: (Absorbance of treated cells/Absorbance of control cells) × 100. IC50 values of the nucleoside analogues were determined by Graphpad.

[2] = test system: SCC-VII (mouse squamous carcinoma) cell line; test: MTT cell viability assay on SCC-VII cells; type: cell-based; settings: for SCC IC50: MTT, 48 h incubation, 5000 cells/well, '-' = no cytotoxicity at 20 µg/mL; for IC50: Mus musculus, 48 h; for SI (selectivity index): HaCaT IC50/SCC IC50
Method: as §1
SCC-VII is a carcinoma tumor that originally arose in the abdominal wall of C3H mice in Dr. Herman Suit’s laboratory at Harvard University, Boston, Massachusetts. SCC VII cells were grown in Dulbecco’s Modified Eagle’s Medium Nutrient Mixture (DMEM-HAM’S F12) (Sigma-Aldrich) supplemented with 2 mM L-glutamine, 23 mM NaHCO3, 100 U/mL penicillin, 100 U/mL streptomycin 1% non-essential amino acids and 10% fetal bovine serum.
as §2, §3, §4, §5

| SMILES | IC50 [1] | HaCaT IC50 [1] | SCC IC50 [2] | IC50 [2] | SI (selectivity index) [2] |
| --- | --- | --- | --- | --- | --- |
| CC(=O)OC[C@H]1O[C@@H](SC[C@@H]2[C@@H](O[Si](C)(C)C(C)(C)C)[C@H](n3cc(C)c(=O)[nH]c3=O)O[C@@H]2CO[Si](C)(C)C(C)(C)C)[C@H](OC(C)=O)[C@@H](OC(C)=O)[C@@H]1OC(C)=O [Compound 3] | 22.4 ± 2.91 µM | quite toxic | no cytotoxic effect; also recorded: no cytotoxicity; also recorded: complete loss of activity | > 20 µg/mL |  |
| Cc1cn([C@@H]2O[C@H](CO[Si](C)(C)C(C)(C)C)[C@H](CSC(C)(C)C)[C@H]2O[Si](C)(C)C(C)(C)C)c(=O)[nH]c1=O [Compound 12, 1-[3’-Deoxy-3’-C-(t-butylsulfanylmethyl)-2’,5’-di-O-(tert-butyldimethylsilyl)-β-D-xylofuranosyl]-thymine] | > 34.9 µM |  |  | 31.1 ± 0.79 µM |  |
| CCCCCCCCCCCCSC[C@@H]1[C@@H](O[Si](C)(C)C(C)(C)C)[C@H](n2cc(C)c(=O)[nH]c2=O)O[C@@H]1CO[Si](C)(C)C(C)(C)C [Compound 15, 1-[3’-Deoxy-3’-C-(n-dodecylsulfanylmethyl)-2’,5’-di-O-(tert-butyldimethylsilyl)-β-D-xylofuranosyl]-thymine] | > 20 µg/mL | complete loss of activity | complete loss of activity | > 20 µg/mL |  |
| Cc1cn([C@@H]2O[C@H](CO[Si](C)(C)C(C)(C)C)[C@H](CSCCO)[C@H]2O[Si](C)(C)C(C)(C)C)c(=O)[nH]c1=O [Compound 17, 1-[3’-Deoxy-3’-C-(2-hydroxyethylsulfanylmethyl)-2’,5’-di-O-(tert-butyldimethylsilyl)-β-D-xylofuranosyl]-thymine] | 14.6 ± 0.82 µM |  |  | 16 ± 0.17 µM | 0.91 |
| Cc1cn([C@@H]2O[C@H](CO[Si](C)(C)C(C)(C)C)[C@H](CSC(C)C)[C@H]2O[Si](C)(C)C(C)(C)C)c(=O)[nH]c1=O [Compound 9, 1-[3’-Deoxy-3’-C-(i-propylsulfanylmethyl)-2’,5’-di-O-(tert-butyldimethylsilyl)-β-D-xylofuranosyl]-thymine] | 22.7 ± 1.34 µM |  |  | 15.2 ± 0.48 µM | 1.49 |
| CCCCCCCCSC[C@@H]1[C@@H](O[Si](C)(C)C(C)(C)C)[C@H](n2cc(C)c(=O)[nH]c2=O)O[C@@H]1CO[Si](C)(C)C(C)(C)C [Compound 14, 1-[3’-Deoxy-3’-C-(n-octylsulfanylmethyl)-2’,5’-di-O-(tert-butyldimethylsilyl)-β-D-xylofuranosyl]-thymine] | 26.4 ± 0.37 µM |  |  | 26 ± 0.76 µM | 1.02 |
| Cc1cn([C@@H]2O[C@H](CO[Si](C)(C)C(C)(C)C)[C@H](CSCC(C)C)[C@H]2O[Si](C)(C)C(C)(C)C)c(=O)[nH]c1=O [Compound 11, 1-[3’-Deoxy-3’-C-(i-butylsulfanylmethyl)-2’,5’-di-O-(tert-butyldimethylsilyl)-β-D-xylofuranosyl]-thymine] | 15.5 ± 2.14 µM |  |  | 23.5 ± 0.12 µM | 0.66 |
| CC(=O)OC[C@H]1O[C@@H](SC[C@@H]2[C@@H](O[Si](C)(C)C(C)(C)C)[C@H](n3ccc(=O)[nH]c3=O)O[C@@H]2CO[Si](C)(C)C(C)(C)C)[C@H](OC(C)=O)[C@@H](OC(C)=O)[C@@H]1OC(C)=O [Compound 1] | > 20 µg/mL | no cytotoxic effect; also recorded: no cytotoxicity; also recorded: complete loss of activity | no cytotoxic effect; also recorded: no cytotoxicity; also recorded: complete loss of activity | > 20 µg/mL |  |
| CCCSC[C@@H]1[C@@H](O[Si](C)(C)C(C)(C)C)[C@H](n2cc(C)c(=O)[nH]c2=O)O[C@@H]1CO[Si](C)(C)C(C)(C)C [Compound 5, 1-[3’-Deoxy-3’-C-(n-propylsulfanylmethyl)-2’,5’-di-O-(tert-butyldimethylsilyl)-β-D-xylofuranosyl]-thymine] | 22.2 ± 1.7 µM | remarkable toxic effect | remarkable toxic effect | 15.2 ± 1 µM | 1.46 |
| CCSC[C@@H]1[C@@H](O)[C@H](n2cc(C)c(=O)[nH]c2=O)O[C@@H]1CO [Compound 19, 1-[3’-Deoxy-3’-C-(n-ethylsulfanylmethyl)-β-D-xylofuranosyl]-thymine] | > 20 µg/mL | did not show any cytotoxic activity; also recorded: no activity | did not show any cytotoxic activity; also recorded: no activity | > 20 µg/mL |  |
| CCCCCCSC[C@@H]1[C@@H](O[Si](C)(C)C(C)(C)C)[C@H](n2cc(C)c(=O)[nH]c2=O)O[C@@H]1CO[Si](C)(C)C(C)(C)C [Compound 13, 1-[3’-Deoxy-3’-C-(n-hexylsulfanylmethyl)-2’,5’-di-O-(tert-butyldimethylsilyl)-β-D-xylofuranosyl]-thymine] | 22.9 ± 0.57 µM |  |  | 15.9 ± 0.32 µM | 1.44 |
| Cc1cn([C@@H]2O[C@H](CO[Si](C)(C)C(C)(C)C)[C@H](CSCc3ccccc3)[C@H]2O[Si](C)(C)C(C)(C)C)c(=O)[nH]c1=O [Compound 16, 1-[3’-Deoxy-3’-C-(benzylsulfanylmethyl)-2’,5’-di-O-(tert-butyldimethylsilyl)-β-D-xylofuranosyl]-thymine] | 14.3 ± 0.36 µM |  |  | 14.6 ± 0.19 µM | 0.98 |
| CCSC[C@@H]1[C@@H](O[Si](C)(C)C(C)(C)C)[C@H](n2cc(C)c(=O)[nH]c2=O)O[C@@H]1CO[Si](C)(C)C(C)(C)C [Compound 8, 1-[3’-Deoxy-3’-C-(ethylsulfanylmethyl)-2’,5’-di-O-(tert-butyldimethylsilyl)-β-D-xylofuranosyl]-thymine] | 16.9 ± 0.55 µM |  |  | 15.5 ± 0.59 µM | 1.09 |
| CCCCSC[C@@H]1[C@@H](O[Si](C)(C)C(C)(C)C)[C@H](n2ccc(=O)[nH]c2=O)O[C@@H]1CO[Si](C)(C)C(C)(C)C [Compound 18, 1-[3’-Deoxy-3’-C-(n-butylsulfanylmethyl)-2’,5’-di-O-(tert-butyldimethylsilyl)-β-D-xylofuranosyl]-uracil] | 14.4 ± 1.59 µM |  |  | 10.9 ± 0.18 µM | 1.32 |
| CCCSC[C@@H]1[C@@H](O[Si](C)(C)C(C)(C)C)[C@H](n2ccc(=O)[nH]c2=O)O[C@@H]1CO[Si](C)(C)C(C)(C)C [Compound 2] | 12.6 ± 0.22 µM | remarkable toxic effect | remarkable toxic effect | 11.8 ± 0.22 µM | 1.07 |
| CN(Cc1cnc2nc(N)nc(N)c2n1)c1ccc(C(=O)N[C@@H](CCC(=O)O)C(=O)O)cc1 [Methotrexate, reference compound] | 290.4 ± 2.76 µM |  |  | 216 ± 2.33 µM |  |
| Cc1cn([C@@H]2O[C@H](CO[Si](C)(C)C(C)(C)C)[C@@H](O)[C@H]2O[Si](C)(C)C(C)(C)C)c(=O)[nH]c1=O [Compound 6T, 2’,5’-di-O-tert-butyldimethylsilyl-ribothymidine] | 15.6 ± 4.45 µM | remarkable toxicity | remarkable toxicity | 18.8 ± 0.74 µM | 0.83 |
| CC(=O)OCC1OC(SCC2C(CO[Si](C)(C)C(C)(C)C)OC(n3cc(C)c(=O)[nH]c3=O)C2O[Si](C)(C)C(C)(C)C)C(OC(C)=O)C(OC(C)=O)C1OC(C)=O (stereo not drawn) [Compound 4] | > 20 µg/mL | no cytotoxic effect; also recorded: no cytotoxicity; also recorded: complete loss of activity | no cytotoxic effect; also recorded: no cytotoxicity; also recorded: complete loss of activity | > 20 µg/mL |  |
